Reference: patent publication US4214093A, “Amino- or guanidino-1,2,3,4-tetrahydro-1-naphthoic esters” (Torii & Co., Ltd., priority 1977, dated 1980)
Like-named read-outs stand apart in the source and are kept apart here.

Legend:
Trypsin = biological target: T1, Trypsin (Bos taurus, UniProt P00760); experiment: Inhibitory effect on ester-hydrolyzing activity of trypsin (TAMe substrate); assay type: biochemical; conditions: for IC50: pH 8.6, 37° C., Table 4 bracketed value, read-out: Trypsin ID50; for inhibition at 1000 µM: read-out: Trypsin percent inhibition
T1 sequence (P00760 24-246): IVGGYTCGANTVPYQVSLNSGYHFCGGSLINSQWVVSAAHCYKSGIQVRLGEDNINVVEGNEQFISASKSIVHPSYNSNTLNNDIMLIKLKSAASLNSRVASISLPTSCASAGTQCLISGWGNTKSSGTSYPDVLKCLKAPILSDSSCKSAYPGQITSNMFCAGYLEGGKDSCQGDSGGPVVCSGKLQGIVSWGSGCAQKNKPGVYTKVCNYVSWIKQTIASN
Protocol: (§1) The enzyme-inhibitory activities in vitro of the compounds of this invention were measured by the following procedure according to the method of M. Muramatsu et al. [[…]. […] After the incubation, 1.5 ml of 2 M alkaline hydroxylamine was added and thoroughly mixed, and allowed to stand at room temperature for 15 minutes.

Human Plasmin = Human Plasmin (Homo sapiens, UniProt P00747); experiment: Inhibitory effect on ester-hydrolyzing activity of human plasmin (TAMe substrate); assay type: biochemical; conditions: for inhibition at 1000 µM: read-out: Plasmin percent inhibition; for IC50: Table 4 bracketed value, read-out: Plasmin ID50
Sequence of Human Plasmin (P00747 581-810 limits assumed): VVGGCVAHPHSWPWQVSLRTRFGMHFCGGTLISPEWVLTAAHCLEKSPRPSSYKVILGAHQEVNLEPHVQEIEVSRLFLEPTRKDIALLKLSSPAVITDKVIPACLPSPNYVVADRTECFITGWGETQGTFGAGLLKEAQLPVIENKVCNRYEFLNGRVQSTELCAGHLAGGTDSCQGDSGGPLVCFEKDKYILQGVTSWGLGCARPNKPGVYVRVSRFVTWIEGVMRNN
Sequence of Human Plasmin (P00747 97-580 partner limits assumed): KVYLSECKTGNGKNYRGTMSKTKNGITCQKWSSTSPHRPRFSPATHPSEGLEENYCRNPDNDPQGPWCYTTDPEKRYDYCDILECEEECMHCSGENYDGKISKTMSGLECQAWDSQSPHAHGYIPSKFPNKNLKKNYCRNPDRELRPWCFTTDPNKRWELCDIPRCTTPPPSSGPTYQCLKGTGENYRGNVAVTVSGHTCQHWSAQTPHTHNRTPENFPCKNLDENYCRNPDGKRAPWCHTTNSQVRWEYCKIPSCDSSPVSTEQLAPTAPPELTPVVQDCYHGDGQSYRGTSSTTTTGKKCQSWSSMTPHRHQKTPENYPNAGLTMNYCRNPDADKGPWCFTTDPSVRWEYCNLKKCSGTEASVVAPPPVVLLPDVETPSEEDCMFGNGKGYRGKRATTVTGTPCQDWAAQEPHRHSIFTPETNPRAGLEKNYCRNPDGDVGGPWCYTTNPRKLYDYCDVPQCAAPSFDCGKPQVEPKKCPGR
Protocol: as §1, with “minutes. […] It was measured by using 0.1 ml of plasmin (generated by activation of plasminogen with streptokinase) and TAMe as substrate following the method described in (1).” for “minutes.”

Bovine Thrombin = Bovine Thrombin (Bos taurus, UniProt P00735); experiment: Inhibitory effect on ester-hydrolyzing activity of bovine thrombin (TAMe substrate); assay type: biochemical; conditions: for inhibition at 1000 µM: at 10^-3 M, in vitro, TAMe, read-out: Thrombin percent inhibition
Protocol: The enzyme-inhibitory activities in vitro of the compounds of this invention were measured by the following procedure according to the method of M. Muramatsu et al. [M. Muramatsu, T. Onishi, S. Makino, Y. Hayashi and S. Fujii: J. Biochem., 58, 214 (1965)]
To 0.1 ml of trypsin (5 μg/ml) were added 0.5 ml of 0.1 M borate buffer solution (pH 8.6) containing 10 mM CaCl2, and 0.1 ml of a varying concentration of an inhibitor solution, and preincubation was carried out at 37° C. for 5 minutes. Then, 10 μmoles of the substrate, TAMe (tosylarginine methyl ester), was added, and incubation was preformed at 37° C. for 30 minutes.
After the incubation, 1.5 ml of 2 M alkaline hydroxylamine was added and thoroughly mixed, and allowed to stand at room temperature for 15 minutes. Then, 1.0 ml of each of 18% trichloroacetic acid, 4 N HCl and 10% FeCl3 was added and thoroughly mixed. If necessary, the mixture was centrifuged at 3,000 rpm for 10 minutes, and the absorbance of the supernatant was measured at 530 nm.
It was measured by using 0.4 ml of bovine thrombin […], 0.02 M sodium phosphate buffer solution (pH 7.4) and TAMe as substrate following the method described in (1).

Human Cl Esterase = biological target: T2, Human Cl Esterase (Homo sapiens, UniProt P09871); experiment: Inhibitory effect on ester-hydrolyzing activity of human Cl esterase (ATEe substrate); assay type: biochemical; conditions: for inhibition at 1000 µM: read-out: Cl-esterase percent inhibition; for IC50: pH 7.4, Table 4 bracketed value, read-out: Cl-esterase ID50
T2 sequence (P09871 438-688 limits assumed): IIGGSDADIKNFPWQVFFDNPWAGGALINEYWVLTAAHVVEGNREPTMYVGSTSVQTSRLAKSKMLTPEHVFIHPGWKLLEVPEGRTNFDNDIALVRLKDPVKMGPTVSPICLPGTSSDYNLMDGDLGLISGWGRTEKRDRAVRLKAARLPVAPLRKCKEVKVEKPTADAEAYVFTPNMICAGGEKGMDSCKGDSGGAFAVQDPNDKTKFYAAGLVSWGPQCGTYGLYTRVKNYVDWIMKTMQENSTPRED
T2 sequence (P09871 16-437 partner limits assumed): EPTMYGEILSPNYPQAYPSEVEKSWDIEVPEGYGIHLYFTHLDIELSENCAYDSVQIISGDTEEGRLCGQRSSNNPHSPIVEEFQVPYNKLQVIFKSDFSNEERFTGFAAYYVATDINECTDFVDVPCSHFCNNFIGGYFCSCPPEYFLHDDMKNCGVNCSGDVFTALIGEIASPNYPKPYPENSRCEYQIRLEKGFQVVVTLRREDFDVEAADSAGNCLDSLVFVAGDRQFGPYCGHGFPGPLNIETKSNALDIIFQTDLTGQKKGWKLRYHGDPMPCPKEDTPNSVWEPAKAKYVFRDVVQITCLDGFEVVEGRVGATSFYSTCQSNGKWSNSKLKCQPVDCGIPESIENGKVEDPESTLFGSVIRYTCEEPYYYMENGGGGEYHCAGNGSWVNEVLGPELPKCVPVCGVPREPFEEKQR
Protocol: It was measured by using 0.1 ml of Cl esterase, 0.1 ml of 0.02 M sodium phosphate buffer solution (pH 7.4 ) and 10 μmoles of ATEe (acetyltyrosine ethyl ester) as substrate following the method described in (1).

thrombin = experiment: Inhibitory activity on thrombus formation: protection from lethal thrombin injection in mice; assay type: in vivo, mice (ddY strain); conditions: 10 minutes before thrombin 300 NIH units/kg i.v., No. 91 in 2.5% gum arabic
Protocol: White male mice (ddY strain), 4 weeks age and weighing 18-27 g, were used throughout the experiments. […] The intravenous injection of 300 NIH units/kg of thrombin over 30 seconds into mice was lethal to all animals. The compounds were intraperitoneally administered in doses of 1, 10, and 100 mg/kg in saline unless otherwise described.
Compounds were intraperitoneally administered 10 minutes before thrombin injection. Compound No. 91 was dissolved in 2.5% gum arabic.

Human Plasma Kallikrein = Human Plasma Kallikrein (Homo sapiens, UniProt P03952); experiment: Inhibitory effect on ester-hydrolyzing activity of human plasma kallikrein (TAMe substrate); assay type: biochemical; conditions: for inhibition at 1000 µM: read-out: Kallikrein percent inhibition; for IC50: Table 4 bracketed value, read-out: Kallikrein ID50
Sequence of Human Plasma Kallikrein (P03952 391-638 limits assumed): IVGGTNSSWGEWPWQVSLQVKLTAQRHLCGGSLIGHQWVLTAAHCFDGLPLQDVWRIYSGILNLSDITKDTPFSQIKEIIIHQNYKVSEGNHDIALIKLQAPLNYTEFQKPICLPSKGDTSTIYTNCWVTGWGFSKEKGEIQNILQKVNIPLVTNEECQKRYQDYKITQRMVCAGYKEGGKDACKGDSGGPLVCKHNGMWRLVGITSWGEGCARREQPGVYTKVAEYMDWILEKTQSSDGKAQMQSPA
Sequence of Human Plasma Kallikrein (P03952 20-390 partner limits assumed): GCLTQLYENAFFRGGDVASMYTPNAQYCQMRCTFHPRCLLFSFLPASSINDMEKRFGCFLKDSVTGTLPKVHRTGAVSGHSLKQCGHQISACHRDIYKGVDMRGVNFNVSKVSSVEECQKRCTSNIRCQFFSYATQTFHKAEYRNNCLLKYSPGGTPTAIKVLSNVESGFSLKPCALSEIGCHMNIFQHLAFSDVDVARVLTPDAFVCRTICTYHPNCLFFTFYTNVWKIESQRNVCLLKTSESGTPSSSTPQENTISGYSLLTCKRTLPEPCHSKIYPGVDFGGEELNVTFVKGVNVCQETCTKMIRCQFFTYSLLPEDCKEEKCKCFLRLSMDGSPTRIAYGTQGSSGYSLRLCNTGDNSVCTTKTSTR
Protocol: as §1

IC50 (Human Plasma Kallikrein; in vitro, TAMe) [µM] | Structure (SMILES) | IC50 (Trypsin; in vitro, TAMe) [µM] | inhibition at 1000 µM (Human Plasmin; at 10^-3 M, in vitro, TAMe) [%] | IC50 (Bovine Thrombin) [µM] | inhibition at 1000 µM (Human Cl Esterase) [%] | IC50 (Human Plasmin; in vitro, TAMe) [µM] | IC50 (Human Cl Esterase; in vitro, ATEe) [µM] | further results
– | COC(=O)c1ccc(OC(=O)C2CCCc3ccc(N)cc32)cc1 (centres unmarked) [Compound 91] | 17 | 40.7 | 210 | 27.4 | – | – | % protective (thrombin; 1 mg/kg i.p.): 0%; Survived / Tested (thrombin; 1 mg/kg i.p.): 0/10; % protective (thrombin; 10 mg/kg i.p.): 0%; Survived / Tested (thrombin; 10 mg/kg i.p.): 0/10; % protective (thrombin; 100 mg/kg i.p.): 20%; Survived / Tested (thrombin; 100 mg/kg i.p.): 2/10
– | NC(=O)COC(=O)c1ccc(OC(=O)C2CCCc3ccc(N)cc32)cc1 (centres unmarked) [Compound 99] | 88 | – | 66 | – | 300 | 540 | inhibition at 1000 µM (Human Plasma Kallikrein): 17.2%
– | CN(C)C(=O)COC(=O)c1ccc(OC(=O)C2CCCc3ccc(N)cc32)cc1 (centres unmarked) [Compound 100] | 190 | – | 40 | 42 | 53 | – | inhibition at 1000 µM (Human Plasma Kallikrein; at 10^-3 M, in vitro, TAMe): 36%
– | CN(C)C(=O)COC(=O)Cc1ccc(OC(=O)C2CCCc3ccc(N)cc32)cc1 (centres unmarked) [Compound 101] | 110 | – | 300 | 31.5 | 48 | – | inhibition at 1000 µM (Human Plasma Kallikrein; at 10^-3 M, in vitro, TAMe): 34.4%
– | CN(C)C(=O)COC(=O)CCc1ccc(OC(=O)C2CCCc3ccc(N)cc32)cc1 (centres unmarked) [Compound 103] | 78 | 21.5 | 1000 | 27.2 | – | – | inhibition at 1000 µM (Human Plasma Kallikrein; at 10^-3 M, in vitro, TAMe): 13.3%
– | Nc1ccc2c(c1)C(C(=O)Oc1ccc(OC(=O)C3CCCc4ccc(N)cc43)cc1)CCC2 (centres unmarked) [Compound 106] | 92 | < 3.2 | – | – | – | – | inhibition at 1000 µM (Human Plasma Kallikrein; at 10^-3 M, in vitro, TAMe): < 3.2%; inhibition at 1000 µM (Bovine Thrombin): 35%; inhibition at 1000 µM (Human Cl Esterase; at 10^-3 M, in vitro, ATEe): 31%
– | CCCCOc1ccc(OC(=O)C2CCCc3c(NC(=N)N)cccc32)cc1 (centres unmarked) [Compound 116] | – | – | 1000 | – | 1000 | 350 | inhibition at 1000 µM (Trypsin): < 3.2%; inhibition at 1000 µM (Human Plasma Kallikrein): 29.3%
190 | N=C(N)Nc1cccc2c1CCCC2C(=O)Oc1ccc(C(=O)OCc2ccccc2)cc1 (centres unmarked) [Compound 124] | 75 | – | – | – | 60 | 1000 | inhibition at 1000 µM (Bovine Thrombin): 45%
– | N=C(N)Nc1cccc2c1CCCC2C(=O)Oc1ccc(C(=O)OCC(N)=O)cc1 (centres unmarked) [Compound 126] | 75 | – | 290 | 30.6 | 580 | – | inhibition at 1000 µM (Human Plasma Kallikrein; at 10^-3 M, in vitro, TAMe): 46.9%
1000 | N=C(N)Nc1cccc2c1CCCC2C(=O)Oc1cccc2ccccc12 (centres unmarked) [Compound 131] | 830 | 13.8 | – | – | – | 410 | inhibition at 1000 µM (Bovine Thrombin): < 3.2%
– | Cc1ccc(OC(=O)C2CCCc3ccc(NC(=N)N)cc32)cc1 (centres unmarked) [Compound 136] | – | – | 900 | – | – | 540 | inhibition at 1000 µM (Trypsin): 17.5%; inhibition at 1000 µM (Human Plasmin): < 3.2%; inhibition at 1000 µM (Human Plasma Kallikrein): < 3.2%
– | COc1cccc(OC(=O)C2CCCc3ccc(NC(=N)N)cc32)c1 (centres unmarked) [Compound 139] | – | – | 260 | – | 1000 | 450 | inhibition at 1000 µM (Trypsin): 46%; inhibition at 1000 µM (Human Plasma Kallikrein): 36.7%
– | CCOC(=O)COC(=O)CCc1ccc(OC(=O)C2CCCc3ccc(NC(=N)N)cc32)cc1 (centres unmarked) [Compound 157] | – | – | 120 | – | 210 | 420 | inhibition at 1000 µM (Trypsin): 48.8%; inhibition at 1000 µM (Human Plasma Kallikrein): 48.5%
110 | N=C(N)Nc1ccc2c(c1)C(C(=O)Oc1cccc3ccccc13)CCC2 (centres unmarked) [Compound 159] | 320 | 27.6 | – | – | – | 180 | inhibition at 1000 µM (Bovine Thrombin): 46%
52 | N#Cc1ccc(OC(=O)C2CCCc3ccc(NC(=N)N)cc32)cc1 (centres unmarked) [Compound 163] | 130 | – | 17 | – | 73 | 400 | –
1000 | N=C(N)Nc1cccc2c1CCCC2C(=O)Oc1cccc2c1CCCC2 (centres unmarked) [Compound 164] | 1000 | 46.1 | – | – | – | 400 | inhibition at 1000 µM (Bovine Thrombin): < 3.2%
200 | N=C(N)Nc1ccc2c(c1)C(C(=O)Oc1cccc3c1CCCC3)CCC2 (centres unmarked) [Compound 167] | – | – | – | – | 1000 | 420 | inhibition at 1000 µM (Trypsin; at 10^-3 M, in vitro, TAMe): 44.8%; inhibition at 1000 µM (Bovine Thrombin): < 3.2%

Structure (SMILES) | IC50 (Human Plasma Kallikrein; in vitro, TAMe) [µM] | IC50 (Trypsin; in vitro, TAMe) [µM] | inhibition at 1000 µM (Human Plasmin; at 10^-3 M, in vitro, TAMe) [%] | IC50 (Bovine Thrombin) [µM] | inhibition at 1000 µM (Human Cl Esterase) [%] | IC50 (Human Plasmin; in vitro, TAMe) [µM] | IC50 (Human Cl Esterase; in vitro, ATEe) [µM] | further results
COc1ccc(OC(=O)C2CCCc3ccc(NC(=N)N)cc32)cc1.Cl (centres unmarked) [Compound 138, p-methoxyphenyl 7-guanidino-1,2,3,4-tetrahydro-1-naphthoate hydrochloride] | 280 | 1000 | 17 | 32 | 39 | – | – | % protective (thrombin; 1 mg/kg i.p.): 0%; Survived / Tested (thrombin; 1 mg/kg i.p.): 0/10; % protective (thrombin; 10 mg/kg i.p.): 20%; Survived / Tested (thrombin; 10 mg/kg i.p.): 2/10; % protective (thrombin; 100 mg/kg i.p.): 30%; Survived / Tested (thrombin; 100 mg/kg i.p.): 3/10
CN(C)C(=O)COC(=O)CCc1ccc(OC(=O)C2CCCc3ccc(NC(=N)N)cc32)cc1 (centres unmarked) [Compound 158] | 420 | – | – | 100 | – | 400 | 700 | inhibition at 1000 µM (Trypsin): 29.1%
N=C(N)Nc1ccc2c(c1)C(C(=O)Oc1ccc(OC(=O)C3CCCc4ccc(NC(=N)N)cc43)cc1)CCC2 (centres unmarked) [Compound 160] | 230 | – | – | 54 | – | 100 | 430 | inhibition at 1000 µM (Trypsin): 40.5%
N#Cc1ccc(OC(=O)C2CCCc3c(NC(=N)N)cccc32)cc1 (centres unmarked) [Compound 162] | 1000 | – | 49 | 1000 | 26.4 | – | – | inhibition at 1000 µM (Trypsin; at 10^-3 M, in vitro, TAMe): 44.2%
